Laboratory results: US20100137313A1 (ASTRAZENECA AB, priority 2008, published 2010)

Molecular target: S. pneumoniae Topoisomerase IV ATPase (ParE) (Streptococcus pneumoniae serotype 4, UniProt Q59961)
Experiment: S. pneumoniae Topoisomerase IV ATPase inhibition
Assay type: biochemical
Details: values marked * are an average of two or more data points, read-out: % Inh (13 μM) of S. pneumoniae Topoisomerase IV ATPase
How it was run: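 ParE ATPase (1.25 nM) run with 160 μM ATP and 5 μg/ml sheared salmon sperm DNA in Tris pH 8.0, Mg2+, glycerol, DTT, Brij-35. Phosphate released read by malachite green/molybdate absorbance at 650 nm. IC50 from 10 compound concentrations; DMSO (2%) as 0% and EDTA (20 μM) as 100% inhibition.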

S. pneumoniae Topoisomerase IV ATPase (ParE), sequence (Q59961 whole entry): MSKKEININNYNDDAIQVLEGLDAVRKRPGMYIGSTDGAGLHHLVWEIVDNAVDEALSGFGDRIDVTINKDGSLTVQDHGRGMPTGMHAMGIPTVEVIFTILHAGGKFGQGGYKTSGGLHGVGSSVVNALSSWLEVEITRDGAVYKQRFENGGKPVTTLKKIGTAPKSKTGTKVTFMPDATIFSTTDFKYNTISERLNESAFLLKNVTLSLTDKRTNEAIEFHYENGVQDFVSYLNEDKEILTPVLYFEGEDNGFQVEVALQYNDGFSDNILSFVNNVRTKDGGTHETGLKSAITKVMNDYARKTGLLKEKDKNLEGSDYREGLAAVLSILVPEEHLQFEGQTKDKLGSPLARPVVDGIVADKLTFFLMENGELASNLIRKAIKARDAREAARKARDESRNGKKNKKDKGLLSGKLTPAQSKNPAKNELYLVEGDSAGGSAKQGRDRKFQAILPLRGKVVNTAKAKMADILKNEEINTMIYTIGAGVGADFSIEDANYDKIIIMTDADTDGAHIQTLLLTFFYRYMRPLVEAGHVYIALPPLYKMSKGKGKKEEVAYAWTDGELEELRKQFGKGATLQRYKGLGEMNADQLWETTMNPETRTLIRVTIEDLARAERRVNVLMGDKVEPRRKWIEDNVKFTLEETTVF

Structure (SMILES)	inhibition at 13 µM [%]
COc1cc(F)cc(Nc2ncc(-c3cncc(C(=O)O)c3)c(-n3ccc(C(F)(F)F)n3)n2)c1 [Example 914, 5-(2-(3-fluoro-5-methoxyphenylamino)-4-(3-(trifluoromthyl)-1H-pyrazol-1-yl)pyrimidin-5-yl)nicotinic acid]	100
COc1cc(F)cc(Nc2ncc(-c3cnc(OC)c(C(=O)O)c3)c(-n3nc(C(F)(F)F)cc3C)n2)c1 [Example 915, 5-(2-(3-fluoro-5-methoxyphenylamino)-4-(5-methyl-3-(trifluoromethyl)-1H-pyrazol-1-yl)pyrimidin-5-yl)-2-methoxynicotinic acid]	100
COc1cc(F)cc(Nc2ncc(-c3cncc(C(=O)O)c3)c(-n3nc(C(F)(F)F)cc3C)n2)c1 [Example 916, 5-(2-(3-fluoro-5-methoxyphenylamino)-4-(5-methyl-3-(trifluoromethyl)-1H-pyrazol-1-yl)pyrimidin-5-yl)nicotinic acid]	99
COc1ncc(-c2cnc(Nc3cc(Cl)cc(C#N)c3)nc2-n2ccc(C(F)(F)F)n2)cc1C(=O)O [Example 917, 5-(2-(3-chloro-5-cyanophenylamino)-4-(3-(trifluoromethyl)-1H-pyrazol-1-yl)pyrimidin-5-yl)-2-methoxynicotinic acid]	100
COc1cc(Nc2ncc(-c3cc(C(=O)O)c(=O)n(C)c3)c(-n3nc(C(F)(F)F)cc3C)n2)cc(OC)c1 [Example 918, 5-(2-(3,5-dimethoxyphenylamino)-4-(5-methyl-3-(trifluoromnethyl)-1H-pyrazol-1-yl)poyrimidin-5-yl)-1-methyl-2-oxo-1,2-dihydropyridine-3-carboxylic acid]	100
CCn1cc(-c2cnc(Nc3cc(OC)cc(OC)c3)nc2-n2nc(C(F)(F)F)cc2C)cc(C(=O)O)c1=O [Example 919, 5-(2-(3,5-dimethoxyphenylamino)-4-(5-methyl-3-(trifluoromethyl)-1H-pyrazol-1-yl)pyrimidin-5-yl)-1-ethyl-2-oxo-1,2-dihydropyridine-3-carboxylic acid]	99
COc1cc(F)cc(Nc2ncc(-c3cc(C(=O)O)c(=O)n(C)c3)c(-n3ccc(C(F)(F)F)n3)n2)c1 [Example 920, 5-(2-(3-fluoro-5-methoxyphenylamino)-4-(3-(trifluoromethyl)-1H-pyrazol-1-yl)pyrimidin-5-yl)-1-methyl-2-oxo-1,2-dihydropyridine-3-carboxylic acid]	100
COc1cc(F)cc(Nc2ncc(-c3cc(C(=O)O)c(=O)n(C)c3)c(-n3nc(C(F)(F)F)cc3C)n2)c1 [Example 921, 5-(2-(3-fluoro-5-methoxyphenylamino)-4-(5-methyl-3-(trifluoromethyl)-1H-pyrazol-1-yl)pyrimidin-5-yl)-1-methyl-2-oxo-1,2-dihydropyridine-3-carboxylic acid]	99
Cc1cc(C)cc(Nc2ncc(-c3cc(C(=O)O)c(=O)n(C)c3)c(-n3ccc(C(F)(F)F)n3)n2)c1 [Example 922, 5-(2-(3,5-dimethylphenylamino)-4-(3-(trifluoromethyl)-1H-pyrazol-1-yl)pyrimidin-5-yl)-1-methyl-2-oxo-1,2-dihydropyridine-3-carboxylic acid]	100
COc1cc(F)cc(Nc2ncc(-c3cnc(OC)c(C(=O)O)c3)c(-n3ccc(C(F)(F)F)n3)n2)c1 [Example 923, 5-(2-(3-fluoro-5-methoxyphenylamino)-4-(3-(trifluoromethyl)-1H-pyrazol-1-yl)pyrimidin-5-yl)-2-methoxynicotinic acid]	100
Cc1cc(C(F)(F)F)nn1-c1nc(Nc2ccc(F)c(Cl)c2)ncc1-c1cncc(C(N)=O)c1 [Example 924, 5-(2-(3-chloro-4-fluorophenylamino)-4-(5-methyl-3-(trifluoromethyl)-1H-pyrazol-1-yl)pyrimidin-5-yl)nicotinamide]	97
Cc1cc(C(F)(F)F)nn1-c1nc(Nc2ccc(F)c(Cl)c2)ncc1-c1cncc(C(=O)NCCNS(C)(=O)=O)c1 [Example 925, 5-(2-(3-chloro-4-fluorophenylamino)-4-(5-methyl-3-(trifluoromethyl)-1H-pyrazol-1-yl)pyrimidin-5-yl)-N-(2-(methylsulfonamido)ethyl)nictinamide]	88
Cc1cc(C(F)(F)F)nn1-c1nc(Nc2ccc(F)c(Cl)c2)ncc1-c1cncc(C(=O)NCCS(C)(=O)=O)c1 [Example 926, 5-(2-(3-chloro-4-fluorophenylamino)-4-(5-methyl-3-(trifluoromethyl)-1H-pyrazol-1-yl)pyrimidin-5-yl)-N-(2-(methylsulfonyl)ethyl)nicotinamide]	100
Cc1cc(C(F)(F)F)nn1-c1nc(Nc2ccc(F)c(Cl)c2)ncc1-c1cncc(C(=O)NCCO)c1 [Example 927, 5-(2-(3-chloro-4-fluorophenylamino)-4-(5-methyl-3-(trifluoromethyl)-1H-pyrazol-1-yl)pyrimidin-5-yl)-N-(2-hydroxyethyl)nicotinamide]	98
Cc1cc(C(F)(F)F)nn1-c1nc(Nc2ccc(F)c(Cl)c2)ncc1-c1cncc(C(=O)NCCN2CCN(C)CC2)c1 [Example 928, 5-(2-(3-chloro-4-fluorophenylamino)-4-(5-methyl-3-(trifluoromethyl)-1H-pyrazol-1-yl)pyrimidin-5-yl)-N-(2-(4-methylpiperazin-1-yl)ethyl)nicotinamide]	85
Cc1noc(CCNC(=O)c2cncc(-c3cnc(Nc4ccc(F)c(Cl)c4)nc3-n3nc(C(F)(F)F)cc3C)c2)n1 [Example 929, 5-(2-(3-chloro-4-fluorophenylamino)-4-(5-methyl-3-(trifluoromethyl)-1H-pyrazol-1-yl)pyrimidin-5-yl)-N-(2-(3-methyl-1,2,4-oxadiazol-5-yl)ethyl)nicotinamide]	82
CNC(=O)CNC(=O)c1cncc(-c2cnc(Nc3ccc(F)c(Cl)c3)nc2-n2nc(C(F)(F)F)cc2C)c1 [Example 930, 5-(2-(3-chloro-4-fluorophenylamino)-4-(5-methyl-3-(trifluoromethyl)-1H-pyrazol-1-yl)pyrimidin-5-yl)-N-(2-(methylamino)-2-oxoethyl)nicotinamide]	72
Cc1cc(C(F)(F)F)nn1-c1nc(Nc2ccc(F)c(Cl)c2)ncc1-c1cncc(C(=O)N2CCOCC2)c1 [Example 931, (5-(2-(3-chloro-4-fluorophenylamino)-4-(5-methyl-3-(trifluoromethyl)-1H-pyrazol-1-yl)pyrimidin-5-yl)pyridin-3-yl)(morpholino)methanone]	100
Cc1cc(C(F)(F)F)nn1-c1nc(Nc2ccc(F)c(Cl)c2)ncc1-c1cncc(C(=O)NCCN2CCOCC2)c1 [Example 932, 5-(2-(3-chloro-4-fluorophenylamino)-4-(5-methyl-3-(trifluoromethyl)-1H-pyrazol-1-yl)pyrimidin-5-yl)-N-(2-morpholinoethyl) nicotinamide]	100
CONC(=O)c1cncc(-c2cnc(Nc3ccc(F)c(Cl)c3)nc2-n2nc(C(F)(F)F)cc2C)c1 [Example 933, 5-(2-(3-chloro-4-fluorophenylamino)-4-(5-methyl-3-(trifluoromethyl)-1H-pyrazol-1-yl)pyrimidin-5-yl)-N-methoxynicotinamide]	100
COCCNC(=O)c1cncc(-c2cnc(Nc3ccc(F)c(Cl)c3)nc2-n2nc(C(F)(F)F)cc2C)c1 [Example 934, 5-(2-(3-chloro-4-fluorophenylamino)-4-(5-methyl-3-(trifluoromethyl)-1H-pyrazol-1-yl)pyrimidin-5-yl)-N-(2-methoxyethyl)nicotinamide]	100
COCC(COC)NC(=O)c1cncc(-c2cnc(Nc3ccc(F)c(Cl)c3)nc2-n2nc(C(F)(F)F)cc2C)c1 [Example 935, 5-(2-(3-chloro-4-fluorophenylamino)-4-(5-methyl-3-(trifluoromethyl)-1H-pyrazol-1-yl)pyrimidin-5-yl)-N-(1,3-dimethoxypropan-2-yl)nicotinamide]	100
COc1cc(Nc2ncc(-c3cncc(C(=O)NCC(O)CO)c3)c(-n3nc(C(F)(F)F)cc3C)n2)cc(C(F)(F)F)c1 (stereo not shown) [Example 936, N-(2,3-dihydroxypropyl)-5-(2-(3-methoxy-5-(trifluoromethyl)phenylamino)-4-(5-methyl-3-(trifluoromethyl)-1H-pyrazol-1-yl)pyrimidin-5-yl)nicotinamide]	100
COCCCNc1nc(Nc2ccc(F)c(Cl)c2)ncc1-c1nnn[nH]1 [Example 937, N2-(3-chloro-4-fluorophenyl)-N4-(3-methoxypropyl)-5-(1H-tetrazol-5-yl)pyrimidine-2,4-diamine]	17
CN(C)CCCNc1nc(Nc2ccc(F)c(Cl)c2)ncc1-c1cncc(-c2nnn[nH]2)c1 [Example 938, 5-(5-(1H-tetrazol-5-yl)pyridin-3-yl)-N2-(3-chloro-4-fluorophenyl)-N4-(3-(dimethylamino)propyl)pyrimidin-2,4-diamine]	91
COc1ncc(-c2cnc(Nc3ccc(F)c(Cl)c3)nc2NC2CCOC2)cn1 (stereo not shown) [Example 940, N2-(3-chloro-4-fluorophenyl)-2′-methoxy-N4-(tetrahydrofuran-3-yl)-5,5′-bipyrimidine-2,4-diamine]	76
COc1ncc(-c2cnc(Nc3ccc(F)c(Cl)c3)nc2N[C@H]2CCOC2)cn1 [Example 941, (S)-N2-(3-chloro-4-fluorophenyl)-2′-methoxy-N4-(tetrahydrofuran-3-yl)-5,5′-bipyrimidine-2,4-diamine]	54
O=C(O)/C=C/c1cccc(-c2cnc(Nc3ccc(F)c(Cl)c3)nc2N[C@H]2CCOC2)c1 [Example 942, (S, E)-3-(3-(2-(3-chloro-4-fluorophenylamino)-4-(tetrahydrofuran-3-ylamino)pyrimidin-5-yl)phenyl)acrylic acid]	100
